Data: BindingDB's records for doi:10.7270/Q22V2DK6 (The Scripps Research Institute Molecular Screening Center, 2010)

Target: T1, Caspase-7 (Homo sapiens, UniProt P55210)
T1 sequence (P55210 whole entry): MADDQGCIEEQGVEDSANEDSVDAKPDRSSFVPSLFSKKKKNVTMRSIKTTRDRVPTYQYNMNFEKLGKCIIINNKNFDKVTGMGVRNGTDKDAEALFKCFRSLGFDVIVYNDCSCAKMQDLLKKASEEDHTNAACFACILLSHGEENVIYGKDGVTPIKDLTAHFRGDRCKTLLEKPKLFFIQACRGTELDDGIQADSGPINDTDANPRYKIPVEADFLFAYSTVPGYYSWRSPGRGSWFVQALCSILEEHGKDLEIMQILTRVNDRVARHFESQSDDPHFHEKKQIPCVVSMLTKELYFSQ
Assay: activation of caspase-7 zymogen – biochemical, absorbance, counter-screen for procaspase-3 activator project, dose response (AID 489013)

SMILES | EC50
O=C(CC1=NC2(CCCC2)Cc2ccccc21)C(=O)NN=Cc1ccccc1O [SMR000219463] | > 85.3 µM
O=c1c2c(-c3ccccc3)[nH]n(-c3ccccc3)c-2c(O)n1-c1ccccc1 [SMR000269383] | > 85.3 µM
